According to patent publication US4032635A, “Pharmaceutical method for the therapy of immune diseases” (Zaidan Hojin Biseibutsu Kagaku Kenkyu Kai, priority 1975, dated 1977):
Read-outs that look alike come from different tables or passages of the source.

Tests used:
[1] = system: humoral and cell-mediated immunities; conditions: cited from earlier work
[2] = system: experimental allergic encephalomyelitis (EAE); conditions: cited from earlier work
[3] = system: nucleic acid and/or protein synthesis; conditions: cited from earlier work
[4] = system: autoimmune diseases, some infection allergies and dermatological contact allergies, transplantation immunological responses; conditions: in vivo; cited from earlier work
[5] = system: Delayed-Type Hypersensitivity (DTH) to sheep red blood cells (SRBC); test: Suppression of delayed-type hypersensitivity (SRBC footpad swelling); format: in vivo, mouse; conditions: for suppression of DTH reaction: anti-inflammatory drugs and protease-inhibitors, 1 mg./mouse; for inhibition in vivo at 1 mg: Erythrocyte, 1 mg./mouse i.p.
Method: The compounds of Formula (I) show suppression of various delayed-type hypersensitivity. In reference to the method by Lagrange [J. Exp. Med. 139, 528 (1974)], 10^8 sheep red blood cells (SRBC) without adjuvant were subcutaneously injected into the mouse hind footpad to immunize the animal. Four days later the animals were challenged by subcutaneous injection of 10^8 SRBC into another footpad. DTH response was measured as the increase in the thickness of footpad 24 hours after the injection of SRBC.
Varying doses of Compound-1 were administered orally or intraperitoneally either at the time of immunization (day 0) or challenge (day 4).
In FIG. 1 the ordinate indicates the swelling (× 0.1 mm.) of mice footpads on day 5 and the abscissa indicates the dose of Compound-1 per mouse administered by the oral (right) and intraperitoneal (left) routes. Solid line curve indicates the relationship when Compound-1 was administered on day 0 and the dotted line curve indicates the relationship when given on day 4.
The compounds were administered intraperitoneally in a dose 1 mg./mouse at the time of immunization (day 0) or challenge (day 4). Table 1 includes the results of humoral antibody response described later.

[6] = system: carrageenin-induced edema; conditions: 1 mg./mouse; cited from earlier work
[7] = system: red blood cells; test: Heat-induced hemolysis of red blood cells / cell membrane stabilization; format: cell-based; conditions: Compound-1 compared with mefenamic acid or indomethacin
[8] = system: primary antibody formation to sheep red blood cells (SRBC), spleen cells; test: Suppression of primary antibody formation (plaque forming cells, Jerne's method); format: in vivo, mice (ddY-strain); conditions: for inhibition in vivo at 1 mg: Erythrocyte, ip, 96 h, 1 mg./mouse i.p., read-out: Suppression, Plaque Forming Cells (suppression rate of primary antibody formation)
Method: 10^8 sheep red blood cells (SRBC) were injected intravenously into ddY-strain mice to immunize the animals, when the compounds of Formula (I) were administered intraperitoneally.
Each compound was administered intraperitoneally in the dosage of 1 mg./mouse.

[9] = system: passive cutaneous anaphylaxis (PCA); test: Suppression of passive cutaneous anaphylaxis (PCA); format: in vivo, guinea pigs; conditions: dilution giving a 10 mm. diameter blue zone; for Max. Dilution of Antiserum, i.p.: i.p. 50 mg./kg.; for Max. Dilution of Antiserum, Oral: oral 100 mg./kg., control 1060
Method: The compounds of Formula (I) are active in suppressing passive cutaneous anaphylaxis (PCA) in guinea pigs. Guinea pigs received intradarmally serial dilutions of antiserum (0.1 ml.), which was obtained from guinea pigs immunized with a mixture of egg albumin and Freund's complete adjuvant. At the time of sensitization with antiserum, the compound of Formula (I) was administered either orally (100 mg./kg.) or intraperitoneally (50 mg./kg.).
Four hours later the animals were challenged by intravenous injection of a mixture of 5 mg. egg albumin and Evans blue dye. The reaction was measured 30 minutes later by the blue zone which emerged at the point of antiserum injection.

[10] = system: experimental allergic encephalomyelitis (EAE); test: Suppression of experimental allergic encephalomyelitis (EAE); format: in vivo, guinea pigs; conditions: for recurrence of paralysis after discontinuation: after discontinuation of the drug
Excerpt: By injecting basic protein (B.P.) the extract from central nervous tissue, together with Freund's complete adjuvant, a typical EAE symptom develops. Guinea pigs show drastic reduction of body weight and development of paralysis about ten days after injection with BP and they finally die within 17 days after the injection of BP.

[11] = system: contact allergy induced by dinitrochlorobenzene (DNCB); test: Suppression of contact allergy induced by dinitrochlorobenzene (DNCB); format: in vivo, guinea pigs; design: key to Skin Lesion Score, Animal No. 1 / Skin Lesion Score, Animal No. 2 / Skin Lesion Score, Animal No. 3: +: slight erythema; ++: marked erythema and slight swelling; +++: marked induration and swelling; conditions: 100 mg./kg. i.p. at 0.5, 24 and 48 hours before challenge; for Skin Lesion Score, Animal No. 1 / Skin Lesion Score, Animal No. 2 / Skin Lesion Score, Animal No. 3: control None +++
Method: For example, approximately 0.1 ml. of a 10% solution of DNCB in acetone was administered percutaneously on the ear. Fourteen days later animals were skin tested on a shaved flank by topical spotting (about 0.05 ml.) of a 0.1% solution of DNCB in acetone. Skin lesions were evaluated and scored 24 hours later as follows:
Guinea pigs readily develop contact hypersensitivities of the delayed-type by simple topical application of DNCB.

[12] = system: primary antibody formation in spleen cell culture; test: Antibody formation in spleen cell culture in vitro (hemolytic plaque assay); format: cell-based, mice
Method: Additional experiment to evaluate the effect of Compound-1 on primary antibody formation was made by spleen cell culture in vitro. According to the method described by Mishell and Dutton [J. Exp. Med., 126, 423 (1967)], dissociated spleen cells prepared from normal mice spleens were cultured with SRBC as antigen and at initiation of cultures Compound-1 was added, and then four days later, antibody formation in cultures was determined by Jerne's hemolytic plaque assay.

[13] = system: rats; test: One-month daily administration; format: in vivo; conditions: oral or i.p., daily 12.5, 50 or 200 mg./kg.
Method: Compound-1 and Compound-2 were given orally or intraperitoneally to rats in daily doses of 12.5, 50 or 200 mg./kg., respectively, for one month.

[14] = Acute toxicity, intraperitoneal; conditions: mouse, in vivo, ip, mice, read-out: LD50 (approximate)
Method: Acute toxicological studies were carried out on mice by intraperitoneal administration of the compounds of Formula (I). The approximate LD50 values for representative compounds are given as follows: […]

[15] = system: systemic anaphylactic shock; test: Suppression of systemic anaphylactic shock (egg albumin); format: in vivo, mice; conditions: for time of death after induction, Animal No. 1: control 16; for time of death after induction, Animal No. 2: control 25; for time of death after induction, Animal No. 3: control 27; for time of death after induction, Mouse No. 1: control 15
Method: The mice were immunized by a subcutaneous injection of a mixture of 0.1 ml. (100 mcg.) egg albumin and 0.1 ml. Freund's complete adjuvant, and used for experiment four months thereafter. In control mice sensitized in the above manner, the shock symptom emerged after induction by intravenous injection of 100 mcg. egg albumin and most of the animals died from shock within about 40 minutes.
Table 3A show the suppression effect with Compound -1 when given as a single dose (0.25 or 1.0 mg./mouse, i.p.) at the time of sensitization. […] In the animals receiving the test drug, the time until death after induction was somewhat delayed and most of the animals survived the shock.

[16] = 10 mg. i.p. once daily, days 3 to 21 after antigen, five animals
[17] = 96 h, at challenge (day 4), read-out: Suppression, Delayed-Type Hypersensitivity, Administered at Induction (suppression rate)
[18] = ip, 0 h, at immunization (day 0), read-out: Suppression, Delayed-Type Hypersensitivity, Administered at Immunization (suppression rate)
[19] = 0.25 mg./mouse i.p. at the time of sensitization
[20] = 1 mg./mouse i.p. at 0.5 and 5 hours before challenge
[21] = 1.0 mg./mouse i.p. at the time of sensitization

## Sc1ncnc2nc[nH]c12 [6-mercaptopurine]
[1]
  dose at which effective / cytotoxicity: effective in general only at near-lethal doses owing to their cytotoxicity
  inhibition of humoral and cell-mediated immunities: inhibit both humoral and cell-mediated immunities
[2]; after discontinuation and following a latent period
  EAE after discontinuation of the drug (known agents): the animals often develop paralytic EAE
[2]; at such high doses as would cause toxicity
  suppression of development of EAE (known agents): can suppress the development of EAE
[3]
  effect on nucleic acid and/or protein synthesis: disrupt nucleic acid and/or protein synthesis
[4]
  effectiveness in therapy of autoimmune diseases, allergies, transplantation responses: effective in the therapy of autoimmune diseases, some infection allergies and dermatological contact allergies

## Cn1cnc([N+](=O)[O-])c1Sc1ncnc2nc[nH]c12 [azathioprine]
[1]
  dose at which effective / cytotoxicity: effective in general only at near-lethal doses owing to their cytotoxicity
  inhibition of humoral and cell-mediated immunities: inhibit both humoral and cell-mediated immunities
[3]
  effect on nucleic acid and/or protein synthesis: disrupt nucleic acid and/or protein synthesis

## Cc1cccc(Nc2ccccc2C(=O)O)c1C [mefenamic acid]
[5]
  suppression of DTH reaction: little suppression of this DTH reaction
[6]
  suppression of carrageenin-induced edema: strongly suppress carrageenin-induced edema
[7]
  suppression of heat-induced hemolysis of red blood cells: about the same extent

## O=C(Nc1cc(Cl)c(O)c(Cl)c1)c1ccccc1O [Compound-1, 3',5'-Dichloro-2,4'-dihydroxybenzanilide]
[8]; 1000, 250, 62.5 and 15.6 mcg./mouse i.p.
  primary antibody formation in spleen cells of treated mice (FIG. 3): apparently suppressed in proportion to increased amounts of Compound-1
[8]
  inhibition in vivo at 1 mg: > 75%
[9]; control 1024
  Max. Dilution of Antiserum, i.p.: 64
[9]; control 1350
  Max. Dilution of Antiserum, i.p.: 315
[9]
  Max. Dilution of Antiserum, Oral: 548
[10]; 10 mg. i.p. once daily, days 3 to 21, four of five animals
  time of paralysis after antigen injection: 13 to 16 days
[10]; [16]
  animals with paralysis to a certain degree and course of symptoms: four others showed paralysis to a certain degree at 13-16 days but the symptoms of EAE soon disappeared
  animals without sign of paralysis: one gave no sign of the development of paralysis
[10]
  recurrence of paralysis after discontinuation: no more paralytic symptoms recurred
[10]; listed as compound-1
  recurrence of paralysis after discontinuation: without recrudescence of paralysis after discontinuation of the drug
[10]; guinea pigs
  suppressive effect on EAE: potent suppressive effect on EAE
[11]
  inhibition of the response to DNCB: significant inhibition of the response to DNCB
  Skin Lesion Score, Animal No. 1: +
  Skin Lesion Score, Animal No. 2: +
  Skin Lesion Score, Animal No. 3: ++
[12]; in vitro
  cytotoxicity / anti-proliferative effect in vitro: not cytotoxic nor anti-proliferative in vitro
[12]; spleen cell culture in vitro
  number of nucleated cells in culture: no changes in the number of nucleated cells
  viable cell count in culture: no changes in the number of nucleated cells nor in the viable cell count
[12]; spleen cell culture in vitro, four days
  number of plaque forming cells in culture: significantly decreased
[5]; [17]
  inhibition in vivo at 1 mg: > 75%
[5]; [18]
  inhibition in vivo at 1 mg: 0 to 25%
[5]; varying doses, oral or i.p., at challenge (day 4)
  DTH suppression, administered on day 4 (FIG. 1): DTH was suppressed in mice sensitized by footpad inoculation with SRBC
[5]; varying doses, oral or i.p., at sensitization (day 0)
  DTH suppression, given at sensitization (day 0) (FIG. 1): not active when given at the time of sensitization (day 0)
[13]
  symptoms or abnormality attributable to the drug: no particular symptoms or abnormality attributable to the drug dosage was noted
  weight gain: normal
[14]
  LD50: 2400 mg/kg
[15]; [19]
  time of death after induction, Animal No. 1: 18 min
  time of death after induction, Animal No. 2: 21 min
  time of death after induction, Animal No. 3: 22 min
[15]; [20]
  time of death after induction, Mouse No. 1: 35 min
[15]; [21]
  time of death after induction, Animal No. 1: 22 min
  time of death after induction, Animal No. 2: 23 min
  time of death after induction, Animal No. 3: 30 min
[7]
  suppression of heat-induced hemolysis of red blood cells: suppressed the heat-induced hemolysis of red blood cells to about the same extent as did mefenamic acid or indomethacin

## COc1ccc2c(c1)c(CC(=O)O)c(C)n2C(=O)c1ccc(Cl)cc1 [indomethacin]
[5]
  suppression of DTH reaction: little suppression of this DTH reaction
[6]
  suppression of carrageenin-induced edema: strongly suppress carrageenin-induced edema
[7]
  suppression of heat-induced hemolysis of red blood cells: about the same extent

## O=C(Nc1cc(Cl)cc(Cl)c1O)c1ccccc1O [Compound-2, 3',5'-Dichloro-2,2'-dihydroxybenzanilide]
[8]
  inhibition in vivo at 1 mg: > 75%
[9]
  Max. Dilution of Antiserum, Oral: 736
[11]
  inhibition of the response to DNCB: significant inhibition of the response to DNCB
  Skin Lesion Score, Animal No. 1: +
  Skin Lesion Score, Animal No. 2: ++
  Skin Lesion Score, Animal No. 3: ++
[5]; [17]
  inhibition in vivo at 1 mg: > 75%
[5]; [18]
  inhibition in vivo at 1 mg: 0 to 25%
[13]
  symptoms or abnormality attributable to the drug: no particular symptoms or abnormality attributable to the drug dosage was noted
  weight gain: normal
[14]
  LD50: 2500 mg/kg
[15]; [20]
  time of death after induction, Mouse No. 1: 10 min
[15]; 1 mg./mouse i.p. at 0.5 and 5 hours before challenge, control 18
  time of death after induction, Mouse No. 2: 35 min
